Source: patent publication US20240287172A1, “PROTEIN BINDERS TO IRHOM2 EPITOPES” (SCIRHOM GMBH, priority 2019, published 2024)

System: PMA-induced release of endogenous IL-6R from PBMCs from healthy donors
Assay: ELISA-based IL-6R release assay, PMA-induced, PBMCs from healthy donors
Type: cell-based
Conditions: Homo sapiens, PBMC; PMA 25 ng/ml, 6 hours; recombinant murine antibodies and IgG at 1 μg/ml; Batimastat at 10 μM
Method: In brief, on day 1, Nunc black MaxiSorp® 96-well plates (Thermo Fisher Scientific, USA) were coated overnight with 100 μl per well of mouse anti-human IL-6R capture antibody (provided as part of the DuoSet ELISA kit) at 4 μg/ml TBS at 4° C. On day 2, the capture antibody solution was removed and MaxiSorp® plates were blocked with 300 μl per well of TBS, 1% BSA at room temperature for 3 hours. Meanwhile, 40,000 PBMC from healthy donors (STEMCELL Technologies, Canada) cells in 80 μl of normal growth medium were seeded in each well of Greiner CELLSTAR V-bottom 96-well plates (Thermo Fisher Scientific, USA) and pre-incubated with 20 μl per well of standard growth medium supplemented with Batimastat (BB94, Abcam, UK) at 50 μM as positive control (for a final concentration of 10 μM in the resulting 100 μl sample volume), mouse IgG antibody (Thermo Fisher Scientific, USA) at 5 μg/ml as isotype control (for a final concentration of 1 μg/ml in the resulting 100 μl sample volume) or antibodies of the invention at 5 μg/ml (for a final concentration of 1 μg/ml in the resulting 100 μl sample volume) at 37° C., 5% CO2 for 30 minutes. […] Using an infinite M1000 (Tecan Group, Switzerland) microplate reader, the fluorescence of each well was collected at an excitation wavelength of 435 nm and an emission wavelength of 555 nm.

CNC(=O)[C@H](Cc1ccccc1)NC(=O)[C@H](CC(C)C)[C@H](CSc1cccs1)C(=O)NO [Batimastat]
inhibition at 10 µM: 114%
